Measurements: patent US8952024B2, “Herbicidal pyrimidone derivatives” (E I du Pont de Nemours and Company, priority 2009, dated 2015)

Tests used:
Format in all cases: in vivo
[1] = test system: Italian ryegrass (Lolium multiflorum); experiment: Test B pre-/postemergence plant response; settings: Postemergence
From the text: (§1) Seeds of plant species selected from blackgrass (Alopecurus myosuroides), downy bromegrass (Bromus tectorum), green foxtail (Setaria viridis), Italian ryegrass (Lolium multiflorum), wheat (Triticum aestivum), wild oat (Avena fatua), deadnettle (henbit deadnettle, Lamium amplexicaule), galium (catchweed bedstraw, Galium aparine), bermudagrass (Cynodon dactylon), Surinam grass (Brachiaria decumbens), cocklebur (Xanthium strumarium), corn (Zea mays), large crabgrass (Digitaria sanguinalis), woolly cupgrass (Eriochloa villosa), giant foxtail (Setaria faberii), goosegrass (Eleusine indica), johnsongrass (Sorghum halepense), kochia (Kochia scoparia), lambsquarters (Chenopodium album), morningglory (Ipomoea coccinea), nightshade (eastern black nightshade, Solanum ptycanthum), yellow nutsedge (Cyperus esculentus), pigweed (Amaranthus retroflexus), ragweed (common ragweed, Ambrosia elatior), Russian thistle (Salsola kali), soybean (Glycine max), sunflower (common oilseed sunflower, Helianthus annuus) and velvetleaf (Abutilon theophrasti) were planted into a blend of loam soil and sand and treated preemergence with test compounds formulated in a non-phytotoxic solvent mixture which included a surfactant.
(§2) At the same time, plants selected from these crop and weed species and also winter barley (Hordeum vulgare), canarygrass (Phalaris minor), chickweed (Stellaria media) and windgrass (Apera spica-venti) were planted in pots containing Redi-Earth® planting medium (Scotts Company, 14111 Scottslawn Road, Marysville, Ohio 43041) comprising spaghnum peat moss, vermiculite, wetting agent and starter nutrients and treated with postemergence applications of some of the test chemicals formulated in the same manner. Plants ranged in height from 2 to 18 cm (1- to 4-leaf stage) for postemergence treatments.
(§3) Treated plants and controls were maintained in a greenhouse for 13 to 15 days, after which time all treated plants were visually evaluated and compared to controls. Plant response ratings, summarized in Table B, are based on a scale of 0 to 100 where 0 is no effect and 100 is complete control. A dash (-) response means no test result.

[2] = test system: Surinam grass (Brachiaria decumbens); experiment: Test B pre-/postemergence plant response; settings: Postemergence
From the text: as §1, §2, §3

[3] = test system: bermudagrass (Cynodon dactylon); experiment: Test B pre-/postemergence plant response; settings: Postemergence
From the text: as §1, §2, §3

[4] = test system: blackgrass (Alopecurus myosuroides); experiment: Test B pre-/postemergence plant response; settings: Postemergence
From the text: as §1, §2, §3

[5] = test system: cocklebur (Xanthium strumarium); experiment: Test B pre-/postemergence plant response; settings: Postemergence
From the text: as §1, §2, §3

[6] = test system: corn (Zea mays); experiment: Test B pre-/postemergence plant response; settings: Postemergence
From the text: as §1, §2, §3

[7] = test system: morningglory (Ipomoea coccinea); experiment: Test B pre-/postemergence plant response; settings: Postemergence
From the text: as §1, §2, §3

[8] = test system: soybean (Glycine max); experiment: Test B pre-/postemergence plant response; settings: Postemergence
From the text: as §1, §2, §3

[9] = test system: barnyardgrass (Echinochloa crus-galli); experiment: Test B flooded paddy test; settings: for Plant response rating, Flood, Barnyardgrass: 250 g ai/ha, flooded paddy test, visual rating on 0 to 100 scale (0 no effect, 100 complete control) after 13 to 15 days; for Plant response rating, Barnyardgrass: Flood (flooded paddy test), 13 to 15 days; for Barnyardgrass plant response rating: Flood, 31 g ai/ha, scale 0 to 100 (0 no effect, 100 complete control)
Outline: (§4)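 Plants were grown to the 2-leaf stage, then pots were flooded to 3 cm above the soil and compounds were applied directly into the paddy water. That depth was held throughout. After 13 to 15 days in a greenhouse, injury was visually rated against controls on a 0–100 scale.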

[10] = test system: ducksalad (Heteranthera limosa); experiment: Test B flooded paddy test; settings: for Plant response rating, Flood, Ducksalad: 250 g ai/ha, flooded paddy test, visual rating on 0 to 100 scale (0 no effect, 100 complete control) after 13 to 15 days; for Plant response rating, Ducksalad: Flood (flooded paddy test), 13 to 15 days; for Ducksalad plant response rating: Flood, 31 g ai/ha, scale 0 to 100 (0 no effect, 100 complete control)
Outline: as §4

[11] = test system: rice (Oryza sativa); experiment: Test B flooded paddy test; settings: for Plant response rating, Flood, Rice: 250 g ai/ha, flooded paddy test, visual rating on 0 to 100 scale (0 no effect, 100 complete control) after 13 to 15 days; for Plant response rating, Rice: Flood (flooded paddy test), 13 to 15 days; for Rice plant response rating: Flood, 31 g ai/ha, scale 0 to 100 (0 no effect, 100 complete control)
Outline: as §4

[12] = test system: umbrella sedge (Cyperus difformis); experiment: Test B flooded paddy test; settings: for Plant response rating, Flood, Sedge, Umbrella: 250 g ai/ha, flooded paddy test, visual rating on 0 to 100 scale (0 no effect, 100 complete control) after 13 to 15 days; for Plant response rating, Sedge, Umbrella: Flood (flooded paddy test), 13 to 15 days; for Sedge, Umbrella plant response rating: Flood, 31 g ai/ha, scale 0 to 100 (0 no effect, 100 complete control)
Outline: as §4

[13] = 31 g ai/ha, 0 to 100 scale (0 no effect, 100 complete control)
[14] = 62 g ai/ha, scale 0 to 100 (0 no effect, 100 complete control)
[15] = 125 g ai/ha, scale 0 to 100 (0 no effect, 100 complete control)
[16] = 250 g ai/ha, scale 0 to 100 (0 no effect, 100 complete control), 13 to 15 days
[17] = 62 g ai/ha, scale of 0 to 100 where 0 is no effect and 100 is complete control
[18] = 125 g ai/ha, scale 0 to 100, 0 is no effect, 100 is complete control

Cc1cc(-n2c(-c3cccc(F)c3)ncc(C(=O)C3=C(O)CCCC3=O)c2=O)ccc1F [Compound 191]
Plant response rating, Ryegrass, Italian [1, 13]: 40 | Plant response rating, Ryegrass, Italian [1, 14]: 40 | Plant response rating, Ryegrass, Italian [1, 15]: 50 | Plant response rating, Ryegrass, Italian [1, 16]: 50 | Plant response rating, Surinam Grass [2, 13]: 70 | Plant response rating, Surinam Grass [2, 14]: 85 | Plant response rating, Surinam Grass [2, 15]: 90 | Plant response rating, Surinam Grass [2, 16]: 98 | Plant response rating, Bermudagrass [3, 13]: 100 | Plant response rating, Bermudagrass [3, 14]: 100 | Plant response rating, Bermudagrass [3, 15]: 100 | Plant response rating, Bermudagrass [3, 16]: 100 | Plant response rating, Blackgrass [4, 13]: 30 | Plant response rating, Blackgrass [4, 14]: 45 | Plant response rating, Blackgrass [4, 15]: 50 | Plant response rating, Blackgrass [4, 16]: 60 | Plant response rating, Cocklebur [5, 13]: 90 | Plant response rating, Cocklebur [5, 14]: 98 | Plant response rating, Cocklebur [5, 15]: 98 | Plant response rating, Cocklebur [5, 16]: 100 | Plant response rating, Corn [6, 13]: 65 | Plant response rating, Corn [6, 14]: 75 | Plant response rating, Corn [6, 15]: 75 | Plant response rating, Corn [6, 16]: 85 | Plant response rating, Morningglory [7, 13]: 40 | Plant response rating, Morningglory [7, 14]: 65 | Plant response rating, Morningglory [7, 15]: 90 | Plant response rating, Morningglory [7, 16]: 100 | Plant response rating, Soybean [8, 13]: 90 | Plant response rating, Soybean [8, 14]: 95 | Plant response rating, Soybean [8, 15]: 100 | Plant response rating, Soybean [8, 16]: 100 | Plant response rating, Flood, Barnyardgrass [9]: 25 | Plant response rating, Barnyardgrass [9, 17]: 0 | Plant response rating, Barnyardgrass [9, 18]: 0 | Barnyardgrass plant response rating [9]: 0 | Plant response rating, Flood, Ducksalad [10]: 100 | Plant response rating, Ducksalad [10, 17]: 85 | Plant response rating, Ducksalad [10, 18]: 75 | Ducksalad plant response rating [10]: 65 | Plant response rating, Flood, Rice [11]: 0 | Plant response rating, Rice [11, 17]: 0 | Plant response rating, Rice [11, 18]: 0 | Rice plant response rating [11]: 0 | Plant response rating, Flood, Sedge, Umbrella [12]: 85 | Plant response rating, Sedge, Umbrella [12, 17]: 75 | Plant response rating, Sedge, Umbrella [12, 18]: 80 | Sedge, Umbrella plant response rating [12]: 60

O=C1CCCC(O)=C1C(=O)c1cnc(-c2ccc(F)cc2)n(C2CCCCC2)c1=O [Compound 197]
Plant response rating, Ryegrass, Italian [1, 13]: 0 | Plant response rating, Ryegrass, Italian [1, 14]: 0 | Plant response rating, Ryegrass, Italian [1, 16]: 35 | Plant response rating, Surinam Grass [2, 13]: 50 | Plant response rating, Surinam Grass [2, 14]: 55 | Plant response rating, Surinam Grass [2, 16]: 70 | Plant response rating, Bermudagrass [3, 13]: 95 | Plant response rating, Bermudagrass [3, 14]: 100 | Plant response rating, Bermudagrass [3, 15]: 100 | Plant response rating, Bermudagrass [3, 16]: 100 | Plant response rating, Blackgrass [4, 13]: 0 | Plant response rating, Blackgrass [4, 14]: 10 | Plant response rating, Blackgrass [4, 15]: 10 | Plant response rating, Blackgrass [4, 16]: 45 | Plant response rating, Cocklebur [5, 13]: 80 | Plant response rating, Cocklebur [5, 14]: 100 | Plant response rating, Cocklebur [5, 15]: 100 | Plant response rating, Cocklebur [5, 16]: 100 | Plant response rating, Corn [6, 13]: 15 | Plant response rating, Corn [6, 14]: 35 | Plant response rating, Corn [6, 15]: 45 | Plant response rating, Corn [6, 16]: 65 | Plant response rating, Morningglory [7, 13]: 98 | Plant response rating, Morningglory [7, 14]: 100 | Plant response rating, Morningglory [7, 15]: 100 | Plant response rating, Morningglory [7, 16]: 100 | Plant response rating, Soybean [8, 13]: 98 | Plant response rating, Soybean [8, 14]: 100 | Plant response rating, Soybean [8, 16]: 100 | Plant response rating, Flood, Barnyardgrass [9]: 30 | Plant response rating, Barnyardgrass [9, 17]: 0 | Plant response rating, Barnyardgrass [9, 18]: 20 | Barnyardgrass plant response rating [9]: 0 | Plant response rating, Flood, Ducksalad [10]: 85 | Plant response rating, Ducksalad [10, 17]: 65 | Plant response rating, Ducksalad [10, 18]: 80 | Ducksalad plant response rating [10]: 65 | Plant response rating, Flood, Rice [11]: 45 | Plant response rating, Rice [11, 17]: 0 | Plant response rating, Rice [11, 18]: 30 | Rice plant response rating [11]: 0 | Plant response rating, Flood, Sedge, Umbrella [12]: 85 | Plant response rating, Sedge, Umbrella [12, 17]: 70 | Plant response rating, Sedge, Umbrella [12, 18]: 75 | Sedge, Umbrella plant response rating [12]: 65
